Assay results taken from patent US11208412B2 (DAEGU-GYEONGBUK MEDICAL INNOVATION FOUNDATION, priority 2017, dated 2021).

Assays:
Experiment in all cases: Kinase selectivity, DiscoverX scanMAX Kinase assay panel (% control)
Type in all cases: binding
[1] = biological target: T1, kinases of the scanMAX Kinase assay panel (Homo sapiens, UniProt P24941); settings: CDK2; 1 uM
T1 construct: purchased DiscoverX Co. (contract measurement) scanMAX Kinase assay panel
In short: (§1)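 Single-point screen, 1 uM cpd in DMSO. % ctrl = (cpd − pos ctrl)/(neg ctrl − pos ctrl)×100; pos ctrl = 0%, DMSO neg ctrl = 100%. Hit cutoff <35%.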

[2] = biological target: T2, kinases of the scanMAX Kinase assay panel (Homo sapiens, UniProt Q08345); settings: DDR1; 1 uM
T2 construct: purchased DiscoverX Co. (contract measurement) scanMAX Kinase assay panel
In short: as §1

[3] = biological target: T3, kinases of the scanMAX Kinase assay panel (Homo sapiens, UniProt Q56UN5); settings: kinase YSK4; 1 uM in DMSO
T3 construct: purchased DiscoverX Co. (contract measurement) scanMAX Kinase assay panel
T3 sequence (Q56UN5 1-1328): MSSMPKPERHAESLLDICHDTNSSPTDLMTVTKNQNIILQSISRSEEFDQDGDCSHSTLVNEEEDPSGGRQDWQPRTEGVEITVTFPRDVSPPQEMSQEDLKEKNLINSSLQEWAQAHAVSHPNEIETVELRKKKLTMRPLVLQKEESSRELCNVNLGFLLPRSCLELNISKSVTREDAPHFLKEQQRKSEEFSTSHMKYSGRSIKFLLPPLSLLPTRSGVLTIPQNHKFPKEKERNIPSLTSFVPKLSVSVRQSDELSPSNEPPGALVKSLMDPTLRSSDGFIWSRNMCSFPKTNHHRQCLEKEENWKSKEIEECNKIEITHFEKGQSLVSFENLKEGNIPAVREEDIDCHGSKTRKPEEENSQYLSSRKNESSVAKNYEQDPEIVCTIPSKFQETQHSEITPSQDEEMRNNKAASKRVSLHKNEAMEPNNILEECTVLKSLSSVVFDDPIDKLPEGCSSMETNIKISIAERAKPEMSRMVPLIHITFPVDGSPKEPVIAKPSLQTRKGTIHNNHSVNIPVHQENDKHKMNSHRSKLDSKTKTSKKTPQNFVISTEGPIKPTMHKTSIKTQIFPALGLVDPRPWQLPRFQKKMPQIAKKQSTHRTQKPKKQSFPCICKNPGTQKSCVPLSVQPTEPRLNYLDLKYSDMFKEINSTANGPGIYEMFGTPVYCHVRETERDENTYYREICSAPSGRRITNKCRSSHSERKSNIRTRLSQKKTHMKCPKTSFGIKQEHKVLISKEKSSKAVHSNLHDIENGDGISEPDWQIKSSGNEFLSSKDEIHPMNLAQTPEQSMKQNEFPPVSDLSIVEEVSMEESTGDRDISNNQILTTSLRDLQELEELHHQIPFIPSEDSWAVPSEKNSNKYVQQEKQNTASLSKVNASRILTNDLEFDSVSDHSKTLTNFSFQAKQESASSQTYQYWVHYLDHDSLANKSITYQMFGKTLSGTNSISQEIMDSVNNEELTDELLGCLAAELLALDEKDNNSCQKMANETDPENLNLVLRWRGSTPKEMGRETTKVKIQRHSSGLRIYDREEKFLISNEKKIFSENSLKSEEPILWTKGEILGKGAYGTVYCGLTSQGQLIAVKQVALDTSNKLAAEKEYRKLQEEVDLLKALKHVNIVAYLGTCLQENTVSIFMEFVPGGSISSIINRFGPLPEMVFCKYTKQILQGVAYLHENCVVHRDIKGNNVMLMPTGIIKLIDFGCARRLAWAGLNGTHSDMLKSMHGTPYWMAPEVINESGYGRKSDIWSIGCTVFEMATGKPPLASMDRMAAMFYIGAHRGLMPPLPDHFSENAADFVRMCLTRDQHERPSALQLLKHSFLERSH
In short: as §1

[4] = biological target: T4, kinases of the scanMAX Kinase assay panel (Homo sapiens, UniProt Q96PY6); settings: NEK1; 1 uM
T4 construct: purchased DiscoverX Co. (contract measurement) scanMAX Kinase assay panel
T4 sequence (Q96PY6 1-1258): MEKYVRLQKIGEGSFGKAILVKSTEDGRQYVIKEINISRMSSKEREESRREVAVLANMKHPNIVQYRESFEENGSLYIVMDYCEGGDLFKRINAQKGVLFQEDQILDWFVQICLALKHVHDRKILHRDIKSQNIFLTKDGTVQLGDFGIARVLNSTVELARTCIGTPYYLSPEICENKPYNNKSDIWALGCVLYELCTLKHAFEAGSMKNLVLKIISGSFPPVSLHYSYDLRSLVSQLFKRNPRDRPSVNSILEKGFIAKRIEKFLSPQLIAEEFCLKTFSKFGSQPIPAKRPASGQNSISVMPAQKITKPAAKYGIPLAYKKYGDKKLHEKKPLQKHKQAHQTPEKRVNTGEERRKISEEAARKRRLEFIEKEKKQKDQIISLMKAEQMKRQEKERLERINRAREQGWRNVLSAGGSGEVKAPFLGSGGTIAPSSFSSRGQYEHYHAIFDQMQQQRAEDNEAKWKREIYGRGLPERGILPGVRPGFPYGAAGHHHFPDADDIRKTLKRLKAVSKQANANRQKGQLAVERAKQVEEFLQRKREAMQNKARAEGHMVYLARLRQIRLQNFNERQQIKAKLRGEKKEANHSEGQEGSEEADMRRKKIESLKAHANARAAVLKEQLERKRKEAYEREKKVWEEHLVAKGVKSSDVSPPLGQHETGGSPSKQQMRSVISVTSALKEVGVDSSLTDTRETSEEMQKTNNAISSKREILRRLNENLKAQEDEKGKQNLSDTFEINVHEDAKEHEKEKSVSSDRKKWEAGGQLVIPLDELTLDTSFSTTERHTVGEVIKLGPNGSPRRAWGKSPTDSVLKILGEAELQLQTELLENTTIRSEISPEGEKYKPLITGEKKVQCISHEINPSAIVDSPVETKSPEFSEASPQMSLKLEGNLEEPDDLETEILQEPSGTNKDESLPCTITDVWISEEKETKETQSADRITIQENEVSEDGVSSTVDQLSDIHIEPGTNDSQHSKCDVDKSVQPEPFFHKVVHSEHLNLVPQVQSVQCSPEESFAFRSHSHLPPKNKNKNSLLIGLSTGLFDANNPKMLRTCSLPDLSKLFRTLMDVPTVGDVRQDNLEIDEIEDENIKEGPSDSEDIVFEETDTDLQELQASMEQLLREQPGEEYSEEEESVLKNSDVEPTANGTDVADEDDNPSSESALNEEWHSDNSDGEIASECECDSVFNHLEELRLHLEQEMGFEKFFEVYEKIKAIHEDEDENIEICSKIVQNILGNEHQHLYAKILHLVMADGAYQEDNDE
In short: as §1

T2 sequence (Q08345 19-913): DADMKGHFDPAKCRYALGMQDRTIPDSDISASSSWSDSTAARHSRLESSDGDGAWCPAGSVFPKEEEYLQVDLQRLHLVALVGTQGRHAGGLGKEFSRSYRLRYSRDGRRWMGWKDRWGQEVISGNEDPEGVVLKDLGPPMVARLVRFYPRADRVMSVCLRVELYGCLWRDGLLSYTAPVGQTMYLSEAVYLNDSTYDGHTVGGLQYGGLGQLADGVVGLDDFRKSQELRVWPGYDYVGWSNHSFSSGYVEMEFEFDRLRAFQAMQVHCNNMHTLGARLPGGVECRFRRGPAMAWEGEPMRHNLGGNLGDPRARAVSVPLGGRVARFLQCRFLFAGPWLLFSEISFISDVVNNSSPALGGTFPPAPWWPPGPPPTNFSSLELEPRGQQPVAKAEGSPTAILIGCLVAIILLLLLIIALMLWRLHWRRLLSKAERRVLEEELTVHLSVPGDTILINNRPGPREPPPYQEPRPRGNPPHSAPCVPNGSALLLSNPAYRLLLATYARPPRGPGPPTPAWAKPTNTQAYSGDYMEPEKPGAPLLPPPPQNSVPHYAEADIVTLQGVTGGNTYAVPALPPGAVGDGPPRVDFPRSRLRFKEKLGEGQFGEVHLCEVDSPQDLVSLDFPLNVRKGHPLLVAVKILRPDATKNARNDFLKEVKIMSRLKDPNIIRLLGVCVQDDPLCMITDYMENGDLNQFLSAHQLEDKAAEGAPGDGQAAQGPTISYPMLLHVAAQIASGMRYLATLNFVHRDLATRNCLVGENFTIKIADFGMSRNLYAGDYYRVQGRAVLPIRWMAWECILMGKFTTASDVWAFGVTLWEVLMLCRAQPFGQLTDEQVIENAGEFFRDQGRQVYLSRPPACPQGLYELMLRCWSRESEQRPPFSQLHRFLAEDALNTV

| SMILES | remaining binding at 1 µM [1] | remaining binding at 1 µM [2] | remaining binding at 1 µM [3] | remaining binding at 1 µM [4] |
| --- | --- | --- | --- | --- |
| CNc1nc(Nc2ccc(C(=O)N3CCOCC3)cc2OC)nc2[nH]cc(C#N)c12 [Example 1, 2-((2-methoxy-4-(morpholine-4-carbonyl)phenyl)amino)-4-(methylamino)-7H-pyrrolo[2,3-d]pyrimidine-5-carbonitrile] | 94% | 94% | 12% | 94% |
| CC1(Nc2nc(Nc3cnn([C@H]4CCN(C5COC5)C[C@@H]4F)c3Cl)nc3[nH]cc(C#N)c23)CC1 [Example 52, 2-((5-chloro-1-((3S,4S)-3-fluoro-1-(oxetane-3-yl)piperidine-4-yl)-1H-pyrazole-4-yl)amino)((1-methylcyclopropyl)amino)-7H-pyrrolo[2,3-d]pyrimidine-5-carbonitrile] | 96% | 50% | 0% | 80% |
| CCNc1nc(Nc2ccc(C(=O)N3CCC(N4CCOCC4)CC3)cc2OC)nc2[nH]cc(C(F)(F)F)c12 [Example 104, (4-((4-(ethylamino)-5-(trifluoromethyl)-7H-pyrrolo[2,3-d]pyrimidine-2-yl)amino)-3-methoxyphenyl)(4-morpholinopiperidine-1-yl)methanone] | 98% | 100% | 94% | 93% |
